This is an account of results in patent US20210130473A1, “TGFßR1 INHIBITOR-ASGR ANTIBODY CONJUGATES AND USES THEREOF” (Silverback Therapeutics, Inc., priority 2019, published 2021).

The target in one assay is T1, ALK5 (Homo sapiens, UniProt P36897).
T1 construct: purchased Reaction Biology Corp (Malvern, Pa.)
T1 sequence (P36897 34-503): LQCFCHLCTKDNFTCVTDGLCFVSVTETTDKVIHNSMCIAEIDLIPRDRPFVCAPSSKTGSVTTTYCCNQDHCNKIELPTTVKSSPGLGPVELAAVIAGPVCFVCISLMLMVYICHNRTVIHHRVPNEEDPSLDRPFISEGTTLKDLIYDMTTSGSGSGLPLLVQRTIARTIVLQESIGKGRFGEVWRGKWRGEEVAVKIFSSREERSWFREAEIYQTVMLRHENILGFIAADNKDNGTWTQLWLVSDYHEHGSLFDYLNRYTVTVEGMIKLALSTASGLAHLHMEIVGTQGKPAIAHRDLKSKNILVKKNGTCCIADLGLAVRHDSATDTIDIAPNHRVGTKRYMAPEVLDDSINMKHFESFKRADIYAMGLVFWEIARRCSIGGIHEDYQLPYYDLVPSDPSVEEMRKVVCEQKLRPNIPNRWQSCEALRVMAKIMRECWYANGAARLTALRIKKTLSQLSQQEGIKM
The assay is described as follows: ALK5 enzyme inhibition assay (casein substrate, 10 uM ATP, 33P-ATP, filter-binding; Reaction Biology Corp). Particulars: Table 11. In kind it is biochemical. The protocol: ALK5 enzyme inhibition assays were performed by Reaction Biology Corp (Malvern, Pa.). 1 mg/mL of peptide substrate (casein) and 10 uM ATP were prepared in a mixture of fresh reaction buffer. The kinase was delivered into the substrate solution which was gently mixed. Compounds in 100% DMSO were added to the kinase reaction mixture by Acoustic technology (Echo550; nanoliter range) and the mixture was incubated for 20 min at room temperature. ^33P-ATP (Specific activity 10 uCi/uL) was added into the reaction mixture to initiate the reaction and the reaction mixture was incubated for 2 hours at room temperature. Radioactivity was detected by filter-binding method and kinase activity data were expressed as the percent remaining kinase activity in test samples compared to vehicle (dimethyl sulfoxide) reactions. IC50 values and curve fits were obtained using Prism (GraphPad Software).

Assay [1] has as its system TGFβ/SMAD Signaling Pathway SBE reporter cell line. The assay is described as follows: TGFb reporter assay in HEK293 SBE-LUC reporter cells (luciferase). In kind it is cell-based. The following applies: Homo sapiens, key of the table says IC50, read-out: EC50 (the source's name). The protocol:
TGFβ/SMAD Signaling Pathway SBE reporter cell line was obtained from BPS Bioscience. Cells are passed, expanded, and stored in liquid nitrogen as per the supplier's instructions with the exception that growth media is changed to DMEM-C with Geneticin (DMEM supplemented with 10% fetal bovine serum, 1×NEAA, 1 mM Pyruvate, 2 mM glutamine, 50 μg/mL penicillin, 50 U/mL streptomycin and 400 μg/mL of Geneticin). The assay media is MEM supplemented with 0.5% fetal bovine serum, 1×NEAA, 1 mM Pyruvate, 50 μg/mL penicillin and 50 U/mL streptomycin.
Compounds are assayed to measure their activity as ALK5 inhibitors.
The HEK293 SBE-LUC reporter cells from Example 15 were grown in DMEM-C with Geneticin (DMEM supplemented with […], 1×NEAA, 1 mM Pyruvate, 2 mM glutamine, 50 μg/mL penicillin, 50 U/mL streptomycin and 400 ug/mL of Geneticin). The assay media was MEM supplemented with 0.5% fetal bovine serum, 1×NEAA, 1 mM Pyruvate, 50 μg/mL penicillin and 50 U/mL streptomycin.
The HEK293 SBE-LUC reporter cells were harvested from the tissue culture flasks by incubation in small quantity of Versene at room temperature for three to five minutes after the media in the flask is removed and cells rinsed with PBS. Cells were counted and diluted in the assay media at ˜0.8×10^6 cells/mL then 50 uL/well were added to 96-well assay plate. Test samples (at desired concentrations diluted in assay media) were added to assay plate containing the 50 uL/well of cells (or media only), 50 uL per well, and incubated for 5-6 hours at 37° C. in a 5% CO2 humidified incubator. After that time, 15 uL of TGFb diluted to 12.5 ng/mL in the assay media was added to the plate. Controls included TGFb titration (from 25 to 0 ng/mL) without inhibitors, and media only (without cells, inhibitor or TGFb). Plates were incubated at 37° C. in a 5% CO2 humidified incubator for 18h. Luciferase substrate solution was subsequently added at 75 uL per well, incubated in dark with shaking at room temperature for 10 min, and luminescence was measured using a luminometer.
Background: A reporter such as luciferase makes a cellular process visible.

For `Cc1cccc(-c2nc(CNCc3ccccc3C(O)C(F)(F)F)[nH]c2-c2ccc3ncnn3c2)n1` (centres unmarked) [Compound 28], the IC50 on ALK5 was in the range of 0.1 to 50 nM; in assay [1], 0.1 to 10 nM.

Take `Cc1cccc(-c2nc(CNCc3ccccc3-c3ccccc3CNC(=O)OC(C)(C)C)[nH]c2-c2ccc3ncnn3c2)n1` [Compound 29]: the IC50 (at ALK5; in assay [1]) was 100 to 1000 nM each time.

On to `Cc1cccc(-c2nc(CNCc3ccccc3-c3cccc(CNC(=O)OC(C)(C)C)c3)[nH]c2-c2ccc3ncnn3c2)n1` [Compound 30], for which the IC50 (at ALK5; in assay [1]) was 100 to 1000 nM in each case.

As for `Cc1cccc(-c2nc(CNCc3ccccc3-c3ccc(CNC(=O)OC(C)(C)C)cc3)[nH]c2-c2ccc3ncnn3c2)n1` [Compound 31], the IC50 (on ALK5; in assay [1]) was 100 to 1000 nM each time.

Regarding `Cc1cccc(-c2nc(CNCc3ccccc3-c3ccccc3CN)[nH]c2-c2ccc3ncnn3c2)n1` [Compound 32], the IC50 (at ALK5; in assay [1]) was 100 to 1000 nM in each case.

Turning to `Cc1cccc(-c2nc(CNCc3ccccc3-c3cccc(CN)c3)[nH]c2-c2ccc3ncnn3c2)n1` [Compound 33], the IC50 (on ALK5; in assay [1]) was 100 to 1000 nM throughout.

Consider `Cc1cccc(-c2nc(CNCc3ccccc3-c3ccc(CN)cc3)[nH]c2-c2ccc3ncnn3c2)n1` [Compound 34], for which the IC50 (on ALK5; in assay [1]) was 100 to 1000 nM in each case.

As for `Cc1cccc(-c2nc(CNCc3ccccc3-c3ccc(F)cc3)[nH]c2-c2ccc3ncnn3c2)n1` [Compound 35], the IC50 on ALK5 is 0.1 to 50 nM; in assay [1], 0.1 to 10 nM.

Turning to `Cc1cccc(-c2nc(CNCc3ccccc3-c3ccc(F)c(F)c3)[nH]c2-c2ccc3ncnn3c2)n1` [Compound 36], the IC50 on ALK5 is 50 to 100 nM; in assay [1], 10 to 100 nM.

For `Cc1cccc(-c2nc(CNCc3ccccc3-c3cccc(F)c3)[nH]c2-c2ccc3ncnn3c2)n1` [Compound 37], the IC50 at ALK5 lay in the range of 50 to 100 nM; in assay [1], 10 to 100 nM.

Consider `Cc1cccc(-c2nc(CNCc3ccccc3-c3ccccc3F)[nH]c2-c2ccc3ncnn3c2)n1` [Compound 38], for which the IC50 on ALK5 was 0.1 to 50 nM; in assay [1] it was 0.1 to 10 nM.

Consider `Cc1cccc(-c2nc(CNCc3ccccc3-c3cc(F)cc(F)c3)[nH]c2-c2ccc3ncnn3c2)n1` [Compound 39], for which the results for the IC50 (on ALK5; in assay [1]) were 0.1 to 50 nM and 10 to 100 nM, respectively.

On to `Cc1cccc(-c2nc(CNCc3ccccc3-c3ccccn3)[nH]c2-c2ccc3ncnn3c2)n1` [Compound 40], for which the IC50 on ALK5 is 100 to 1000 nM; in assay [1], 10 to 100 nM.

Turning to `Cc1cccc(-c2nc(CNCc3ccccc3-c3cccnc3)[nH]c2-c2ccc3ncnn3c2)n1` [Compound 41], the values for the IC50 (at ALK5; in assay [1]) were 50 to 100 nM and 0.1 to 10 nM, respectively.

As to `Cc1cccc(-c2nc(CNCc3ccccc3-c3ccncc3)[nH]c2-c2ccc3ncnn3c2)n1` [Compound 42], the IC50 on ALK5 was 100 to 1000 nM; in assay [1], 10 to 100 nM.

On to `Cc1cccc(-c2nc(CNCc3ccccc3C3CCCCC3)[nH]c2-c2ccc3ncnn3c2)n1` [Compound 43], for which the IC50 (at ALK5; in assay [1]) was 100 to 1000 nM throughout.

Turning to `Cc1cccc(-c2nc(CNCc3ccccc3C3CCCC3)[nH]c2-c2ccc3ncnn3c2)n1` [Compound 44], the values for the IC50 (on ALK5; in assay [1]) were 100 to 1000 nM and 10 to 100 nM, respectively.

With `Cc1cccc(-c2nc(CNCc3cccc(C)c3C)[nH]c2-c2ccc3ncnn3c2)n1` [Compound 45], the IC50 at ALK5 lay within 50 to 100 nM; in assay [1], 0.1 to 10 nM.

`COc1cccc(CNCc2nc(-c3cccc(C)n3)c(-c3ccc4ncnn4c3)[nH]2)c1C` [Compound 46]: the IC50 on ALK5 was 50 to 100 nM; in assay [1] it was 0.1 to 10 nM.

Take `Cc1cccc(-c2nc(CNCc3cccc(Cl)c3C)[nH]c2-c2ccc3ncnn3c2)n1` [Compound 47]: the figures for the IC50 (at ALK5; in assay [1]) were 0.1 to 50 nM and 0.1 to 10 nM, respectively.

As for `Cc1cccc(-c2nc(CNCc3cccc(C)c3-c3ccccc3)[nH]c2-c2ccc3ncnn3c2)n1` [Compound 48], the results for the IC50 (on ALK5; in assay [1]) were 0.1 to 50 nM and 10 to 100 nM, respectively.

As to `Cc1cccc(-c2nc(CNCc3cccc(-c4ccccc4)c3C)[nH]c2-c2ccc3ncnn3c2)n1` [Compound 49], the IC50 on ALK5 lay in the range of 100 to 1000 nM; in assay [1], 10 to 100 nM.

On to `Cc1cccc(CNCc2nc(-c3cccc(C)n3)c(-c3ccc4ncnn4c3)[nH]2)c1` [Compound 50], for which the IC50 on ALK5 was in the range of 100 to 1000 nM; in assay [1], 10 to 100 nM.

As to `Cc1cccc(-c2nc(CNCc3cccc(-c4ccccc4)c3)[nH]c2-c2ccc3ncnn3c2)n1` [Compound 51], the IC50 (at ALK5; in assay [1]) was 100 to 1000 nM each time.

Turning to `Cc1cccc(-c2nc(CNCCc3ccccc3)[nH]c2-c2ccc3ncnn3c2)n1` [Compound 52], the IC50 on ALK5 was in the range of 50 to 100 nM; in assay [1], 0.1 to 10 nM.

Consider `Cc1cccc(-c2nc(CNCc3ccccc3Oc3ccccc3)[nH]c2-c2ccc3ncnn3c2)n1` [Compound 53], for which the values for the IC50 (on ALK5; in assay [1]) were 0.1 to 50 nM and 0.1 to 10 nM, respectively.

For the compound `Cc1cccc(-c2nc(CNCc3ccccc3Oc3cccnc3)[nH]c2-c2ccc3ncnn3c2)n1` [Compound 54], the figures for the IC50 (at ALK5; in assay [1]) were 50 to 100 nM and 0.1 to 10 nM, respectively.

`Cc1cccc(-c2nc(CNCCc3ccccc3F)[nH]c2-c2ccc3ncnn3c2)n1` [Compound 59]: the IC50 is 0.1 to 50 nM on ALK5 and 0.1 to 10 nM in assay [1].

As for `Cc1cccc(-c2nc(CNCCc3cccc(F)c3)[nH]c2-c2ccc3ncnn3c2)n1` [Compound 61], the IC50 fell in the range of 0.1 to 50 nM on ALK5 and 0.1 to 10 nM in assay [1].

`Cc1cccc(-c2nc(CNCCc3ccc(F)cc3)[nH]c2-c2ccc3ncnn3c2)n1` [Compound 62]: the IC50 at ALK5 lay within 100 to 1000 nM; in assay [1] it was 0.1 to 10 nM.

Consider `Cc1cccc(-c2nc(CNCCc3ccc(F)cc3F)[nH]c2-c2ccc3ncnn3c2)n1` [Compound 63], for which the values for the IC50 (on ALK5; in assay [1]) were 100 to 1000 nM and 0.1 to 10 nM, respectively.

As for `Cc1cccc(-c2nc(CNCCCc3ccccc3)[nH]c2-c2ccc3ncnn3c2)n1` [Compound 64], the IC50 lay within 100 to 1000 nM at ALK5 and 0.1 to 10 nM in assay [1].

With `Cc1cccc(-c2nc(CNCCOc3ccccc3)[nH]c2-c2ccc3ncnn3c2)n1` [Compound 65], the IC50 fell in the range of 100 to 1000 nM at ALK5 and 0.1 to 10 nM in assay [1].

As for `Cc1cccc(-c2nc(CNCCNc3ccccc3)[nH]c2-c2ccc3ncnn3c2)n1` [Compound 66], the values for the IC50 (at ALK5; in assay [1]) were 100 to 1000 nM and 0.1 to 10 nM, respectively.

For `Cc1cccc(-c2nc(CNCCN(C)c3ccccc3)[nH]c2-c2ccc3ncnn3c2)n1` [Compound 67], the IC50 on ALK5 lay in the range of 50 to 100 nM; in assay [1], 0.1 to 10 nM.

As to `Cc1cccc(-c2nc(CNCc3ccccc3-c3ccccc3)[nH]c2-c2ccc3ncccc3n2)n1` [Compound 68], the IC50 is 0.1 to 50 nM at ALK5 and 10 to 100 nM in assay [1].

Turning to `Cc1cccc(-c2nc(CNCc3ccccc3-c3ccccc3)[nH]c2-c2ccnc3ccccc23)n1` [Compound 69], the IC50 (on ALK5; in assay [1]) was 100 to 1000 nM throughout.

Consider `Cc1cccc(-c2nc(CNCc3ccccc3-c3ccccc3)[nH]c2-c2ccc3c(c2)OCO3)n1` [Compound 71], for which the IC50 lay within 0.1 to 50 nM on ALK5 and 100 to 1000 nM in assay [1].

Turning to `Cc1cccc(-c2nc(CNCCc3c(F)cccc3F)[nH]c2-c2ccc3c(c2)OCO3)n1` [Compound 81], the results for the IC50 (at ALK5; in assay [1]) were 0.1 to 50 nM and 10 to 100 nM, respectively.

With `Cc1cccc(-c2nc(CNCCc3c(F)cccc3F)[nH]c2-c2ccc3nccnc3c2)n1` [Compound 82], the IC50 on ALK5 fell in the range of 0.1 to 50 nM; in assay [1], 0.1 to 10 nM.
